Assay results reported in patent publication US6500840B2, “Quinuclidine-substituted heteroaryl moieties for treatment of disease” (Pharmacia & Upjohn Company, priority 2000, dated 2002).
“And” between values parts separate entries of the source, which are not always exact repeats. Equal entries are not always repeated. Structures can show the parent of a compound that is named as a salt.

target: α7 nAChR (Homo sapiens, UniProt P36544); experiment: not given; conditions: cited from earlier work
Sequence (P36544 23-502): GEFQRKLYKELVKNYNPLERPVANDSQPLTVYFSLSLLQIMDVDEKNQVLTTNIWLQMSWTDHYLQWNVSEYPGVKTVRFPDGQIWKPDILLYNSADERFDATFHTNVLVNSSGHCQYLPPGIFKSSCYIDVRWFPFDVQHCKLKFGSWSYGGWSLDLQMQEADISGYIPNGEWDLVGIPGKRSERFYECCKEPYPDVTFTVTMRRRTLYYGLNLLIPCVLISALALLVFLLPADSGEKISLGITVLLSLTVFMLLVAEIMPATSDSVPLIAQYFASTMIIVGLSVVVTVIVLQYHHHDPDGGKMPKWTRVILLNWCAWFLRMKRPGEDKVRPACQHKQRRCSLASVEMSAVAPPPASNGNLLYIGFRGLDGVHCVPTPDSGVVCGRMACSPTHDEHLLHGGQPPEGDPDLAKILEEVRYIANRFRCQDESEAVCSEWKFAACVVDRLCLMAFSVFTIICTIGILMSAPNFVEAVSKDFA

Compound	activity at the α7 nAChR
Cc1nccn1CC1CCc2c(c3ccccc3n2C)C1=O (stereo not shown) [Ondansetron]	little activity

target: T1, 5HT3R (Homo sapiens, UniProt P46098); experiment: not given; conditions: cited from earlier work
T1 sequence (P46098 24-478): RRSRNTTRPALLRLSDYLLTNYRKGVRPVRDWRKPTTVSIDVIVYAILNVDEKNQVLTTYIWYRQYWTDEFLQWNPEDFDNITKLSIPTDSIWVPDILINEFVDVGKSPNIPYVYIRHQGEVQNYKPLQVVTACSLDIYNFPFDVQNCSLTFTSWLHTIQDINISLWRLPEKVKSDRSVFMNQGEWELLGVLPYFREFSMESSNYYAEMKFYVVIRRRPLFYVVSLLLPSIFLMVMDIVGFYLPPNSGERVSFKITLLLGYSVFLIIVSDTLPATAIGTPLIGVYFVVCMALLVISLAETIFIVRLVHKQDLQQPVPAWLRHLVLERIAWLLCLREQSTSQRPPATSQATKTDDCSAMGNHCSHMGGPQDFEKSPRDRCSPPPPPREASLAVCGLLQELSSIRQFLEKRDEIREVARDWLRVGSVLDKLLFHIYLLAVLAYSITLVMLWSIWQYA

Compound	activity at the 5HT3R
COc1ccc(/C=C2\CCCN=C2c2cccnc2)c(OC)c1 [GTS-21]	little activity

target: α7 nAChR (Rattus norvegicus, UniProt Q05941); experiment: [3H]-MLA competition binding assay, rat brain membranes; conditions: Ki, inhibition of [3H]-MLA binding (3.0 to 4.0 nM), Sprague-Dawley rat whole brain minus cerebellum homogenate, 1 hour at 25° C
Sequence (Q05941 23-502): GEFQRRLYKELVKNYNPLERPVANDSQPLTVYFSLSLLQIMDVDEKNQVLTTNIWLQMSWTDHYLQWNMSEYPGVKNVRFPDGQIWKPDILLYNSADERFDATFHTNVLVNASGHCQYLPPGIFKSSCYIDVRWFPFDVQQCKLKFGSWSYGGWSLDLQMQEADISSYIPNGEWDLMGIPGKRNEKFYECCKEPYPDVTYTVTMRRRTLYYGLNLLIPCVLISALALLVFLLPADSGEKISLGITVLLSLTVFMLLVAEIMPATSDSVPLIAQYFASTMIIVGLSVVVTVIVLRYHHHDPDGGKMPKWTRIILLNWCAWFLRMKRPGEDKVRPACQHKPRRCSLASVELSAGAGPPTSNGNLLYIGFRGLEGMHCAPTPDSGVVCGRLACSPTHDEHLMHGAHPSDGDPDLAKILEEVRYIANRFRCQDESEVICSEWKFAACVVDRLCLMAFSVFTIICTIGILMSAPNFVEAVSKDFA
Procedure: Membrane Preparation. Male Sprague-Dawley rats (300-350 g) are sacrificed by decapitation and the brains (whole brain minus cerebellum) are dissected quickly, weighed and homogenized in 9 volumes/g wet weight of ice-cold 0.32 M sucrose using a rotating pestle on setting 50 (10 up and down strokes). The homogenate is centrifuged at 1,000×g for 10 minutes at 4° C. The supernatant is collected and centrifuged at 20,000×g for 20 minutes at 4° C. The resulting pellet is resuspended to a protein concentration of 1-8 mg/mL. Aliquots of 5 mL homogenate are frozen at −80° C. until needed for the assay.
Binding Assay. […] Filters are pre-soaked in 50 mm Tris HCl pH 7.0-0.05% polyethylenimine. The filters are rapidly washed two times with 5 mL aliquots of cold 0.9% saline and then counted for radioactivity by liquid
Data Analysis. […] Hill coefficients were obtained using non-linear regression (GraphPad Prism sigmoidal dose-response with variable slope).

Compound	Ki
O=C(N[C@H]1CN2CCC1CC2)c1cnc(-c2ccccc2F)s1 [Example 52, N-[(3R)-1-Azabicyclo[2.2.2]oct-3-yl]-2-(2-fluorophenyl)-1,3-thiazole-5-carboxamide Citrate]	340 to 480 nM
O=C(N[C@H]1CN2CCC1CC2)c1ccc(-c2ccccn2)s1 [Example 20, N-[(3R)-1-Azabicyclo[2.2.2]oct-3-yl]-5-(pyridin-2-yl)-thiophene-2-carboxamide]	3 to 5 nM
Cc1ccc(-c2ccc(C(=O)N[C@H]3CN4CCC3CC4)o2)c([N+](=O)[O-])c1 [Example 130, N-[(3R)-1-azabicyclo[2.2.2]oct-3-yl]-5-(4-methyl-2-nitrophenyl)-furan-2-carboxamide hydrochloride]	420 to 565 nM and 330 to 410 nM
COc1ccc(C(=O)N[C@H]2CN3CCC2CC3)s1 [Example 19, N-[(3R)-1-Azabicyclo[2.2.2]oct-3-yl]-5-methoxy-thiophene-2-carboxamide Hydrochloride]	24 nM
O=C(N[C@H]1CN2CCC1CC2)c1ccc(Sc2ccc(F)cc2F)s1 [Example 34, N-[(3R)-1-azabicyclo[2.2.2]oct-3-yl]-5-(2,4-difluorophenyl-sulfanyl)-thiophene-2-carboxamide hydrochloride]	30 to 39 nM
O=C(N[C@H]1CN2CCC1CC2)c1ncc(-c2ccc(F)cc2)s1 [Example 95, N-[(3R)-1-azabicyclo[2.2.2]oct-3-yl]-5-(4-fluorophenyl)-1,3-thiazole-2-carboxamide 4-methylbenzenesulfonate]	1080 nM
O=C(N[C@H]1CN2CCC1CC2)c1ccc(-c2ccc(O)c(F)c2)s1 [Example 43, N-[(3R)-1-Azabicyclo[2.2.2]oct-3-yl]-5-(3-fluoro-4-hydroxyphenyl)-thiophene-2-carboxamide Hydrochloride]	3 to 5 nM
O=C(N[C@H]1CN2CCC1CC2)c1ncc(-c2ccc(Br)cc2)o1 [Example 88, N-[(3R)-1-azabicyclo[2.2.2]oct-3-yl]-5-(4-bromophenyl)-1,3-oxazole-2-carboxamide 4-methylbenzenesulfonate]	65 to 80 nM
O=C(N[C@H]1CN2CCC1CC2)c1ncc(-c2cccc([N+](=O)[O-])c2)s1 [Example 92, N-[(3R)-1-azabicyclo[2.2.2]oct-3-yl]-5-(3-nitrophenyl)-1,3-thiazole-2-carboxamide 4-medhylbenzenesulfonate]	190 to 375 nM
COc1ccccc1-c1cnc(C(=O)N[C@H]2CN3CCC2CC3)s1 [Example 96, N-[(3R)-1-azabicyclo[2.2.2]oct-3-yl]-5-(2-methoxyphenyl)-1,3-thiazole-2-carboxamide 4-methylbenzenesulfonate]	95 to 110 nM
O=C(N[C@H]1CN2CCC1CC2)c1ccc(-c2ccccc2F)o1 [Example 113, N-[(3R)-1-azabicyclo[2.2.2]oct-3-yl]-5-(2-fluorophenyl)-furan-2-carboxamide 4-methylbenzenesulfonate]	90 to 125 nM
O=C(N[C@H]1CN2CCC1CC2)c1ccc(-c2cccs2)s1 [Example 21]	1 to 2 nM
O=C(N[C@H]1CN2CCC1CC2)c1ccc(Oc2ccccc2)o1 [Example 151, N-[(3R)-1-Azabicyclo[2.2.2]oct-3-yl]-5-phenoxy-furan-2-carboxamide 4-Methylbenzenesulfonate]	225 to 835 nM
O=C(N[C@H]1CN2CCC1CC2)c1cnc(-c2ccccc2)o1 [Example 155, N-[(3R)-1-azabicyclo[2.2.2]oct-3-yl]-2-phenyl-1,3-oxazole-5-carboxamide 4-methylbenzenesulfonate]	1380 nM
O=C(N[C@H]1CN2CCC1CC2)c1ccc(-c2ccccc2OC(F)(F)F)o1 [Example 138, N-[(3R)-1-azabicyclo[2.2.2]oct-3-yl]-5-[2-(trifluoromethoxy)phenyl]-furan-2-carboxamide 4-methylbenzenesulfonate]	525 to 590 nM
Cc1cccc(-c2ccc(C(=O)N[C@H]3CN4CCC3CC4)o2)c1 [Example 136, N-[(3R)-1-azabicyclo[2.2.2]oct-3-yl]-5-(3-methylphenyl)-furan-2-carboxamide 4-methylbenzenesulfonate]	15 to 20 nM
N#Cc1cccc(-c2cnc(C(=O)N[C@H]3CN4CCC3CC4)o2)c1 [Example 87, N-[(3R)-1-azabicyclo[2.2.2]oct-3-yl]-5-(3-cyanophenyl)-1,3-oxazole-2-carboxamide 4-methylbenzenesulfonate]	130 to 150 nM
